# Test system: not listed separately
# Test: Stability in human liver microsome
# Format: in vitro ADME
# Conditions: liver microsomes, pH 7.4, 1.5 μM drug solution, NADPH, 37° C., read-out: Human T1/2
# Method: Vortexing for 10 min, the sample was centrifuged with 5594×g for 15 min in centrifuger (Thermo Multifuge×3R). • 10) taking 50 μL supernatant from the centrifuged sample, transferred to 96 well sample plate contain 50 μL water, mixed, and the sample was analyzed using LC-MS/MS.
row,half-life at 1 µM [h],Structure (SMILES)
1,3.31,O=C(C[n+]1ccc(NCc2ccccc2)cc1)c1ccccc1 [AB24807A]
2,11.2,O=C(C[n+]1ccc2c(c1)CCCC(c1ccccc1)N2)c1ccc(Cl)cc1 (stereo not shown) [AB24839]
3,2.33,O=C1c2ccc(Cl)cc2CC1[n+]1ccc(NCc2ccccc2)cc1 (stereo not shown) [AB24840A]
4,7.97,O=C1c2cc(Cl)ccc2CCC1[n+]1ccc(NCc2ccccc2)cc1 (stereo not shown) [AB24913]
5,3.6,O=C(C[n+]1ccc(NCc2ccccc2)nc1)c1ccc(-c2ccccc2)cc1 [AB24964]

# Test system: NCI-H82 cell
# Test: Cell viability (Promega CellTiter-Glo) of NCI-H82 cell
# Format: cell-based
# Conditions: Homo sapiens, NCI-H82
# Method: Cell viability was detected using the Promega CellTiter-Glo kit, the kit reflected cell viability by directly measuring intracellular ATP content. Small cell lung cancer cell NCI-H82 (ATCC, No. HTB-175) was cultured in 10% fetal bovine serum-containing RPMI1640 medium (+P/S).
# Cell viability was detected using the Promega CellTiter-Glo kit, the kit reflected cell viability by directly measuring intracellular ATP content.
# Daoy cell was cultured in 10% fetal bovine serum-containing DMEM medium (+P/S), and NCI-H82 cell was cultured in 10% fetal bovine serum-containing RPMI1640 medium (+P/S).
# Cell viability was detected using the Promega CellTiter-Glo kit, the kit reflected cell viability by directly measuring intracellular ATP content. In the experiment, the IC50 value of different compounds on different tumor cell lines was detected to determine cell lines that were sensitive or insensitive to different compounds.
# Tumor cells were cultured in 10% FBS-containing medium (+p/s), and incubated for 3 h or the following day, then the gradient diluted compound was added. After 3 days of culture, the relevant IC50 (50% inhibiting concentration) was measured. The name, source and culture conditions of each tumor cell line were as follows:
# Cell line NCI-H82 (ATCC, No. HTB-175) was cultured in 10% fetal bovine serum-containing RPMI1640 medium (+P/S).
row,Structure (SMILES),IC50 [nM]
1,O=C(C[n+]1ccc2[nH]c(Cc3ccccc3)cc2c1)c1ccc(Cl)cc1 [AB24827A],2890
2,O=C(C[n+]1ccc2cc(Cc3ccccc3)[nH]c2c1)c1ccc(Cl)cc1 [AB24828A],5790
3,O=C(C[n+]1ccc2cc(-c3ccccc3)[nH]c2c1)c1ccc(Cl)cc1 [AB24831A],5410
4,O=C(C[n+]1ccc2c(Cc3ccccc3)c[nH]c2c1)c1ccc(Cl)cc1 [AB24835A],2750
5,O=C(C[n+]1ccc2c(Cc3ccccc3)c[nH]c2c1)c1ccc([N+](=O)[O-])cc1 [AB24863],3610
6,Cc1ccc(C(=O)C[n+]2ccc3ccn(Cc4ccccc4)c3c2)cc1 [AB24945],4220

# Same assay, conditions: Homo sapiens; NCI-H82 cell, Table 1; read-out: IC50
row,IC50 [nM],Structure (SMILES)
1,230,COc1ccc(C(=O)C[n+]2ccc(NCc3ccccc3)cc2)cc1 [AB24803A]
2,540,O=C(C[n+]1ccc(NCc2ccccc2)cc1)c1ccccc1 [AB24807A]
3,5930,CC(C)(C(=O)c1ccc(Cl)cc1)[n+]1ccc(NCc2ccccc2)cc1 [AB24813]
4,5540,CC(Nc1cc[n+](CC(=O)c2ccc(Cl)cc2)cc1)c1ccccc1 (stereo not shown) [AB24814]
5,4610,O=C(C[n+]1ccc(NCc2ccccc2)cc1)c1ccc(Cl)nc1 [AB24817]
6,7170,Cc1cnc(C(=O)C[n+]2ccc(NCc3ccccc3)cc2)cn1 [AB24821]
7,6700,O=C(C[n+]1ccc(NCc2ccccn2)cc1)c1ccc(Cl)cc1 [AB24822]
8,710,O=C(C[n+]1ccc2c(c1)CCC(c1ccccc1)N2)c1ccc(Cl)cc1 (stereo not shown) [AB24838]
9,9130,O=C(C[n+]1ccc2c(c1)C=CCC(c1ccccc1)N2)c1ccc(Cl)cc1 (stereo not shown) [AB24839B]
10,990,O=C(C[n+]1ccc2c(c1)CCCC(c1ccccc1)N2)c1ccc(Cl)cc1 (stereo not shown) [AB24839]
11,2590,O=C1c2ccc(Cl)cc2CC1[n+]1ccc(NCc2ccccc2)cc1 (stereo not shown) [AB24840A]
12,5780,Cc1ccc(C(=O)Cn2cnc(/C=C/c3ccccc3)c2)cc1 [AB24850]
13,6570,Cc1ccc(C(=O)C[n+]2csc(NCc3ccccc3)c2)cc1 [AB24851]
14,1570,Cc1ccc(C(=O)C[n+]2ccc3c(Cc4cccc(Cl)c4)c[nH]c3c2)cc1 [AB24854]
15,2290,Cc1ccc(C(=O)C[n+]2ccc3c(Cc4ccccc4)c[nH]c3c2)cc1 [AB24859]
16,4090,Cc1ccccc1C(=O)C[n+]1ccc2c(Cc3ccccc3)c[nH]c2c1 [AB24861]
17,1240,Cc1ccc(C(=O)C[n+]2ccc3c(-c4cccc(C)c4)c[nH]c3c2)cc1 [AB24872]
18,3580,O=C(C[n+]1ccc2c(-c3ccccc3)c[nH]c2c1)c1cccc([N+](=O)[O-])c1 [AB24878]
19,6370,O=C(Nc1ccc([N+](=O)[O-])cc1)c1ccc(NCc2ccccc2)cc1 [AB24883]
20,3130,Cc1ccc(C(=O)C[n+]2ccc3c(c2)ncn3Cc2ccccc2)cc1 [AB24885]
21,290,Cc1ccc(C(=O)C[n+]2ccc3c(ccn3Cc3ccccc3)c2)cc1 [AB24887]
22,850,O=C(C[n+]1ccc2c(ccn2Cc2ccccc2)c1)c1cccc([N+](=O)[O-])c1 [AB24888]
23,2090,Cc1ccc(C(=O)C[n+]2ccc3c(ccn3-c3ccccc3)c2)cc1 [AB24895]
24,6280,O=C(C[n+]1ccc2c(-c3ccccc3)n[nH]c2c1)c1cccc([N+](=O)[O-])c1 [AB24898]
25,3220,Cc1cccc2c1C(=O)C([n+]1ccc(NCc3ccccc3)cc1)C2 (stereo not shown) [AB24904]

row,IC50 [nM],Structure (SMILES)
1,2520,Cc1ccc2c(c1)C(=O)C([n+]1ccc(NCc3ccccc3)cc1)C2 (stereo not shown) [AB24905]
2,1660,Cc1ccc2c(c1)CC([n+]1ccc(NCc3ccccc3)cc1)C2=O (stereo not shown) [AB24906]
3,180,O=C1c2cc(Cl)ccc2CCC1[n+]1ccc(NCc2ccccc2)cc1 (stereo not shown) [AB24913]
4,380,Cc1ccc2c(c1)C(=O)C([n+]1ccc(NCc3ccccc3)cc1)CC2 (stereo not shown) [AB24916]
5,120,Cc1ccc2c(c1)CCC([n+]1ccc(NCc3ccccc3)cc1)C2=O (stereo not shown) [AB24917]
6,1010,O=C1c2cc([N+](=O)[O-])ccc2CCC1[n+]1ccc(NCc2ccccc2)cc1 (stereo not shown) [AB24920]
7,6850,O=C1c2ncccc2CCC1[n+]1ccc(NCc2ccccc2)cc1 (stereo not shown) [AB24923]
8,3960,O=C1c2cnccc2CCC1[n+]1ccc(NCc2ccccc2)cc1 (stereo not shown) [AB24924]
9,3960,CC(C)c1c[nH]c2c[n+](CC(=O)c3cccc(Cl)c3)ccc12 [AB24938]
10,100,O=C1c2cc(F)ccc2CCC1[n+]1ccc(NCc2ccccc2)cc1 (stereo not shown) [AB24948]
11,680,O=C1c2ccc(F)cc2CCC1[n+]1ccc(NCc2ccccc2)cc1 (stereo not shown) [AB24949]
12,390,COc1cccc2c1CCC([n+]1ccc(NCc3ccccc3)cc1)C2=O (stereo not shown) [AB24954]
13,2800,Cc1ccc(C(=O)C[n+]2ccc(N(C)Cc3ccccc3)cc2)cc1 [AB24955]
14,770,Cc1ccc(C(=O)C[n+]2ccc(N3Cc4ccccc4C3)cc2)cc1 [AB24956]
15,1060,Cc1ccc(C(=O)C[n+]2ccc(N3CCc4ccccc4C3)cc2)cc1 [AB24957]
16,4110,Cc1ccc(C(=O)C[n+]2ccc(N3CCc4ccccc4C3=O)cc2)cc1 [AB24959]
17,540,Cc1ccc2c(c1)CCC([n+]1ccc(NCc3ccccc3)nc1)C2=O (stereo not shown) [AB24961]
18,330,COc1ccc(C(=O)C[n+]2ccc(NCc3ccccc3)nc2)cc1 [AB24963]
19,1090,O=C(C[n+]1ccc(NCc2ccccc2)nc1)c1ccc(-c2ccccc2)cc1 [AB24964]
20,3880,O=C(C[n+]1ccc(NCc2ccccc2)nc1)c1cccc(OC(F)(F)F)c1 [AB24967]
21,3400,Nc1cccc(C(=O)C[n+]2ccc(NCc3ccccc3)cc2)c1 [AB24983]
22,2000,O=C(C[n+]1ccc2c(ccn2Cc2ccccc2)c1)c1ccc(C(F)(F)F)cc1 [AB24987]
23,920,O=C(C[n+]1ccc2c(ccn2Cc2ccccc2)c1)c1ccc(OC(F)(F)F)cc1 [AB24988]
24,340,O=C(C[n+]1ccc2c(ccn2Cc2ccccc2)c1)c1cccc(Cl)c1 [AB24991]
25,1350,O=C1c2ccc(C(F)(F)F)cc2CCC1[n+]1ccc2c(ccn2Cc2ccccc2)c1 (stereo not shown) [AB24996]

row,IC50 [nM],Structure (SMILES)
1,1300,O=C(C[n+]1ccc2c(c1)CC(c1ccccc1)N2)c1ccc(OC(F)(F)F)cc1 (stereo not shown) [AB24999]
2,720,O=C1c2ccc(C(F)(F)F)cc2CCC1[n+]1ccc2c(c1)CCC(c1ccccc1)N2 (stereo not shown) [AB27104]
3,1620,O=C(C[n+]1ccc2c(Cc3ccccc3)c[nH]c2c1)c1ccc(C(F)(F)F)cc1 [AB27106]
4,2180,O=C(C[n+]1ccc2c(Cc3ccccc3)c[nH]c2c1)c1ccc(OC(F)(F)F)cc1 [AB27107]
5,850,O=C1c2ccc(OC(F)(F)F)cc2CCC1[n+]1ccc(NCc2ccccc2)cc1 (stereo not shown) [AB27111]
6,3930,O=C(C[n+]1ccc2[nH]c(Cc3ccccc3)cc2c1)c1ccc(C(F)(F)F)cc1 [AB27114]
7,1720,Cc1ccc(Cc2c[nH]c3c[n+](CC(=O)c4ccc(C(F)(F)F)cc4)ccc23)cc1 [AB27118]
8,260,Cc1cc2c[n+](C3CCc4ccc(Cl)cc4C3=O)ccc2n1Cc1ccccc1 (stereo not shown) [AB27129]
9,340,Cc1ccc2c(c1)C(=O)C([n+]1ccc3c(c1)CCC(c1ccccc1)N3)CC2 (stereo not shown) [AB27133]
10,250,CCCn1ccc2c[n+](C3CCc4ccc(OC(F)(F)F)cc4C3=O)ccc21 (stereo not shown) [AB27145]
11,2810,Cn1ccc2c[n+](C3CCc4ccc(C(F)(F)F)cc4C3=O)ccc21 (stereo not shown) [AB27148]
12,1980,CCn1ccc2c[n+](C3CCc4ccc(C(F)(F)F)cc4C3=O)ccc21 (stereo not shown) [AB27149]
13,870,Cn1ccc2c[n+](C3CCc4ccc(OC(F)(F)F)cc4C3=O)ccc21 (stereo not shown) [AB27154]
14,650,CCn1ccc2c[n+](C3CCc4ccc(OC(F)(F)F)cc4C3=O)ccc21 (stereo not shown) [AB27155]
15,550,O=C1c2cc(OC(F)(F)F)ccc2CCC1[n+]1ccc2c(ccn2C2CC2)c1 (stereo not shown) [AB27158]
16,280,CC(c1ccccc1)n1ccc2c[n+](C3CCc4ccc(C(F)(F)F)cc4C3=O)ccc21 (stereo not shown) [AB27161]
17,240,CC(c1ccccc1)n1ccc2c[n+](C3CCc4ccc(OC(F)(F)F)cc4C3=O)ccc21 (stereo not shown) [AB27162]
18,150,Cc1ccc2c(c1)C(=O)C([n+]1ccc3c(ccn3C(C)c3ccccc3)c1)CC2 (stereo not shown) [AB27163]
19,410,CC(c1ccccc1)n1ccc2c[n+](C3CCc4ccc(Cl)cc4C3=O)ccc21 (stereo not shown) [AB27165]
20,160,CC(=O)N(Cc1ccccc1)c1cc[n+](CC(=O)c2ccc(C)cc2)cc1 [AB27166]
21,320,Cc1ccc(C(=O)C[n+]2ccc(NCc3ccccc3)c(C)c2)cc1 [AB27169]
22,100,Cc1cn(Cc2ccccc2)c2cc[n+](C3CCc4ccc(C(F)(F)F)cc4C3=O)cc12 (stereo not shown) [AB27174]
23,40,Cc1ccc2c(c1)C(=O)C([n+]1ccc3c(c1)c(C)cn3Cc1ccccc1)CC2 (stereo not shown) [AB27176]
24,230,Cc1ccc2c(c1)CCC([n+]1ccc3c(ccn3C(C)c3ccccc3)c1)C2=O (stereo not shown) [AB27184]
